Values quoted from earlier work as cited in patent publication US8603996B2, “Modular aptamer-regulated ribozymes” (California Institute of Technology, priority 2006, dated 2013).

System: theophylline aptamer

## O=c1[nH]c(=O)c2[nH]cnc2[nH]1 [xanthine]
  binding affinity lower than theophylline: 27 fold
